Measurements: patent publication US10973912B2, “Treatment for myopathy” (Children's Medical Center Corporation, priority 2015, dated 2021)

System: ryr1b skeletal muscles
Assay: Tetanic force per cross-sectional area in larvae at 5 dpf
Assay type: in vivo, zebrafish (Danio rerio)
Experimental: Tetanic forces were measured following stimulation with 9 biphasic, 200 μs square-wave pulses at 300 Hz (WT-DMSO: 45.6±4.2 kPa, n=5; WT-NIF: 52.8±4.1 kPa, n=5; ryr1b-DMSO: 11.4±1.3 kPa, n=7; ryr1b-NIF: 25.4±4.0 kPa, n=7). Significance was determined by a one-way ANOVA (F=29.61, P<0.0001), followed by pairwise Tukey's HSD post hoc tests. […] Non-linear regression data of curves were not statistically different, as determined by an extra sum-of-squares F test (P=1.0).
Ryr1b mutants display weaker muscle contractions than wild-type clutchmates as early as 2 dpf^30. To investigate whether […] affects contractile strength in zebrafish, ryr1b mutants and unaffected controls were treated with the compound for several days. At 5 dpf, electrophysiological studies were performed with the help of Dr. Jeffrey Widrick.

SMILES: O=C(N/N=C/c1ccc([N+](=O)[O-])o1)c1ccc(O)cc1 [Nifuroxazide]
- tetanic forces in treated mutants: restored to wild-type levels
- tetanic force per cross-sectional area, ryr1b mutants (ryr1b, n=7, 9 biphasic 200 μs pulses at 300 Hz, ryr1b-DMSO 11.4±1.3, WT-DMSO 45.6±4.2): 25.4±4.0 kPa
